Measured values published in patent US12122833B2, “Combination therapies of HDAC inhibitors and PD-1 inhibitors” (HUYABIO International, LLC, priority 2016, dated 2024).

How the values were obtained:
[1] = test system: MC38 murine colon carcinoma cells; assay: Example 2: tumor growth delay, MC38 tumors (5×10^5 cells) in C57BL/6 mice; type: in vivo, mouse; conditions: HBI-8000 50 mg/kg p.o. qd×21, anti-PD-1 5 mg/kg i.p. biwk×3
Protocol: Animals that exited the study for tumor volume endpoint were documented as euthanized for tumor progression (TP), with the date of euthanasia. The time to endpoint (TTE) for analysis was calculated for each mouse by the following equation:
[formula] where TTE is expressed in days, endpoint volume is expressed in mm^3, b is the intercept, and m is the slope of the line obtained by linear regression of a log-transformed tumor growth data set. The data set consisted of the first observation that exceeded the endpoint volume used in analysis and the three consecutive observations that immediately preceded the attainment of this endpoint volume. The calculated TTE is usually less than the TP date, the day on which the animal was euthanized for tumor burden. […] In instances in which the log-transformed calculated TTE preceded the day prior to reaching endpoint or exceeded the day of reaching tumor volume endpoint, a linear interpolation was performed to approximate the TTE. […]
Treatment Outcome: Treatment outcome was evaluated from tumor growth delay (TGD), which is defined as the increase in the median time to endpoint (TTE) in a treatment group compared to the control group: TGD=T−C expressed in days, or as a percentage of the median TTE of the control group: […]
Treatment Efficacy: Treatment efficacy may be determined from the tumor volumes of animals remaining in the study on the last day. […]

[2] = test system: 4T1 murine mammary carcinoma; assay: Example 4: lung metastatic foci count, orthotopic 4T1 murine mammary carcinoma in BALB/c mice; type: in vivo, mouse; conditions: day 14; HBI-8000 50 mg/kg p.o. qd×13; anti-PD-1 5 mg/kg i.p. biwk×2; vs vehicle control (35.0±2.17 foci)
Protocol: In this Example 4, antitumor responses induced by HBI-8000, administered alone and in combination with anti-PD-1 RMP1-14 (anti-PD-1) were characterized in the 4T1 murine mammary carcinoma xenograft model in BALB/c mice. The impact of these therapies on lung metastasis was evaluated.
Treatments began on Day (D) 1 in BALB/c mice bearing established 4T1 tumors. HBI-8000 was administered orally (p.o.) and anti-PD-1 was administered intraperitoneally (i.p.), at a single dose level. Test agents were administered alone and in combination with HBI-8000. Control animals received vehicle. The study ended on D14 as the endpoint for metastatic foci was reached. Treatment response was determined based on metastases counts taken from animals remaining on D14.
In Vivo Implantation and Tumor Growth: 4T1 tumor cells were harvested during exponential growth and resuspended in PBS. […] Tumor growth was monitored as the average size of tumors approached the target range of 80-120 mm3. […]
Results were analyzed by counting the lung metastatic foci on D14, the last day of the study. […] Percent inhibition was defined as the difference between the number of metastatic foci of the designated control group and the number of metastatic foci of the drug-treated group, expressed as a percentage of the number of metastatic foci of the designated control group: […]

[3] = oral administration; cited from earlier work

## Nc1cc(F)ccc1NC(=O)c1ccc(CNC(=O)/C=C/c2cccnc2)cc1 [HBI-8000, N-(2-amino-4-fluorophenyl)-4-[[[(2E)-1-oxo-3-(3-pyridinyl)-2-propen-1-yl]amino]methyl]benz amide]
[1]; endpoint 1000 mm^3 or Day 50, n=10
  Median TTE: 19.4 days
[1]; vs vehicle
  % TGD: 19%
[2]
  inhibition of lung metastatic foci: −26%
[3]
  t1/2: about 17 hours
